Values after ≈ are worked out from the molar mass of the structure shown.
Conditions: buffer; pH 7.4; 200.0 µM

| SMILES | solubility kinetic [µg/mL] |
| --- | --- |
| O=C(O)c1ccccc1C(=O)Nc1c(-c2ccccc2)nc2ccccn12 | 49.6 (≈ 139 µM) |
| CCn1c(SCC(=O)Nc2nccs2)nnc1C1CC1 | > 46.4 |
| Cc1cc(Br)c(NC(=O)COC(=O)CC2CC3CCC2C3)c(Br)c1 (stereo not given) | 7.7 (≈ 16.8 µM) |
| CCN(CC)CCNc1oc(-c2ccccc2)nc1S(=O)(=O)c1ccccc1 | > 59.9 |
| C=C(C)C(=O)Nc1ccc2c(c1)OCCOCCOCCO2 | 35.2 (≈ 115 µM) |
| COc1ccc(/C=C/C(=O)ONC2=NCCCCC2)cc1OC | > 47.8 |
| Cc1ccc2[nH]c3c(c2c1)CCCC3NC(=O)CCl (stereo not given) | > 41.5 |
| COc1ccc(N2CCN(C(CNC(=O)C(=O)NCCCO)c3ccco3)CC2)cc1 (stereo not given) | > 64.6 |
| CC[N+](CC)(CC)CC.[Cl-] | 20.3 |
| CN(C)NC(=O)c1cccc(Cl)c1 | > 29.8 |
| O=C(N/N=C/c1ccccc1O)C(=O)N1CCCCCC1 | > 43.4 |
| COCc1c(C(=O)NC2CCCCCC2)oc2ccccc12 | 10.4 (≈ 34.5 µM) |
| O=C(COC(=O)c1ccco1)NC12CC3CC(CC(C3)C1)C2 | 2.2 (≈ 7.25 µM) |
| CC1(C)CC(NC(=O)C2CCCCC2)CC(C)(C)N1 | 35.2 (≈ 132 µM) |
| CS(=O)(=O)N1CCC(C(=O)Nc2ccc(F)cc2)CC1 | > 45.1 |
| CC(C)NC(=O)N(Cc1ccc(Cl)cc1)Cc1cccs1 | 37 (≈ 115 µM) |
| Cc1ccc(OCC(=O)N2CCCCCCC2)cc1 | > 39.2 |
| O=C(NC1C/C(=N/O)c2cc3c(cc21)OCO3)C(F)(F)F (stereo not given) | 32.3 (≈ 107 µM) |
| COc1ccc(C(=O)Nc2nccs2)cc1 | 8.1 (≈ 34.6 µM) |
| O=C(Nc1cccnc1Cl)c1cc2ccccc2o1 | 7.3 (≈ 26.8 µM) |
| CN(CCOc1ccccc1)CC(=O)Nc1cccc(C#N)c1 | 43 (≈ 139 µM) |

| SMILES | solubility kinetic [µg/mL] |
| --- | --- |
| CC(=O)N/C(=C\c1ccc2c(c1)OCO2)C(=O)NC(C(=O)O)c1ccccc1 (stereo not given) | > 57.4 |
| CN(C(=O)CSc1ncccn1)C1CCS(=O)(=O)C1 (stereo not given) | 42.2 (≈ 140 µM) |
| CCN(C(=O)c1ccc2c(c1)OCO2)C12CC3CC(CC(C3)C1)C2 | 4 (≈ 12.2 µM) |
| Cc1onc(-c2c(Cl)cccc2Cl)c1C(=O)N=C(N)N1CCCC1 | 12 (≈ 32.7 µM) |
| CSCC[C@H](NC(=O)c1cccc(S(=O)(=O)N2CCN(C)CC2)c1)c1nc2ccccc2[nH]1 | > 73.1 |
| Cc1ccccc1NC(=O)c1cccc(C(=O)Nc2ccccc2C)n1 | 0.3 (≈ 0.869 µM) |
| COc1ccccc1OCC(=O)O/N=C(\N)c1ccccn1 | > 45.2 |
| CSc1ccc(CNCCCSc2ncccn2)cc1.Cl | > 51.3 |
| CN(C)C(=O)C1CCC(=O)N1Cc1cccs1 (stereo not given) | > 37.8 |
| O=C(Nc1ncccn1)C12CC3CC(CC(C3)C1)C2 | > 38.6 |
| Cc1cc(/C=C(\C#N)C(=O)N2CCOCC2)c(C)n1C1CCCC1 | 32.9 (≈ 100 µM) |
| COc1ccc(NC(=O)c2cc(-c3cccc(OC)c3)on2)cc1 | < 0.3 |
| Cc1nc(NC(=O)c2c(-c3ccccc3Cl)noc2C)sc1C | 13 (≈ 37.4 µM) |
| O=C(NCCCn1ccnc1)C(=O)NC1CCCCC1 | > 41.8 |
| Nc1cc2c(cc1[N+](=O)[O-])OCCOCCOCCO2 | > 42.6 |
| CCCc1nnc(NC(=O)CCC(=O)NC2CC2)s1 | > 42.4 |
| Cn1c(=O)n(C)c2cc3[nH]cnc3cc21 | > 30.3 |
| Cc1ccc(OCCNC(=O)CNC(=O)c2ccc(C)cc2)cc1 | 6.8 (≈ 20.8 µM) |
| Cc1nnc(SCC(=O)NC23CC4CC(CC(C4)C2)C3)s1 | > 48.5 |
| COc1ccc(-c2cc(-c3ccc(O)cc3)nc(N)c2C#N)cc1OC | 1.7 (≈ 4.89 µM) |
| O=C(CCC1CCN(Cc2ccccc2O)CC1)NC1CC1 | 42.6 (≈ 141 µM) |

| SMILES | solubility kinetic [µg/mL] |
| --- | --- |
| CC12CC3CC(C)(C1)CC(C(O)CN1CCOCC1)(C3)C2.Cl (stereo not given) | > 49.5 |
| O=C(NCCCNC(=O)c1cnccn1)c1ccc(Cl)cc1 | > 47.8 |
| COc1ccc(CC(=O)N2CCN(c3ccccc3OC)CC2)cc1OC | 51.5 (≈ 139 µM) |
| CCc1ccc(OCC(=O)O/N=C(\N)c2ccncc2)cc1 | 7.1 (≈ 23.7 µM) |
| CNc1nc(-c2c(C)[nH]c3ccc(OC)cc23)cs1 | 31.8 (≈ 116 µM) |
| COc1ccc(C(=O)NC2CCSc3ccccc32)cc1F (stereo not given) | 2.9 (≈ 9.14 µM) |
| COc1ccc(C2c3ccsc3CCN2C(=O)C(C)(C)C)cc1 (stereo not given) | 14.9 (≈ 45.2 µM) |
| O=C(Nc1ccc(N2CCCCC2)cc1)c1ccc2ccccc2n1 | < 0.2 |
| CCCCNc1ccc(C(=O)OCCN(C)C)cc1.Cl | > 45.1 |
| O=C(OCC(=O)N1CCCC1)c1ccc(Cl)nc1 | > 40.3 |
| O=C(c1cc(-c2ccccc2O)on1)N1CCCCCC1 | 2.6 (≈ 9.08 µM) |
| Cc1cc(NC(=O)c2cc(-c3ccc(Br)cc3)on2)no1 | 3 (≈ 8.62 µM) |
| CCOC(=O)C1CCN(C(=O)/C(=C/c2ccccc2)NC(=O)c2ccccc2)CC1 | > 61 |
| O=C(OCC(=O)N1CCCC1=O)c1cc(Cl)ccc1O | > 44.7 |
| O=C(Nc1ccccc1)C1COc2ccccc2O1 (stereo not given) | 30.1 (≈ 118 µM) |
| O=C(COc1ccc(Oc2ccccc2)cc1)NC1CCS(=O)(=O)C1 (stereo not given) | > 54.2 |
| CC(=O)OCC[N+](C)(C)C.[Cl-] | > 27.2 |
| S=c1[nH]c2ccccc2n2c(=S)[nH]nc12 | > 35.1 |
| O=C(COc1ccccc1)NCCSCc1ccccc1Cl | 14.7 (≈ 43.8 µM) |

More lines, now with the values ahead:

| solubility kinetic [µg/mL] | SMILES |
| --- | --- |
| > 32.6 | COC(=O)c1cn(-c2cccc(C)n2)cn1 |
| > 43.3 | CCC(C)NC(=O)C1CCC(=O)N1CCc1ccccc1 (stereo not given) |
| 1.7 (≈ 5.25 µM) | O=C(CSc1ccccn1)Nc1ccc(Cl)c([N+](=O)[O-])c1 |
| 17 (≈ 70.5 µM) | Cn1c(N2CCOCC2)c(C#N)c2ccccc21 |
| 29.2 (≈ 121 µM) | O=Cc1cccc(OC(=O)Nc2ccccc2)c1 |
| > 40.4 | O=C(NCc1cccnc1)c1cc(C(=O)C2CC2)c[nH]1 |
| > 50.5 | Cc1ccc2c(c1)C(c1ccccc1)N(C(=O)CC(C)C)CC(=O)N2 (stereo not given) |
| > 43.8 | COc1ccc(Cn2cc([N+](=O)[O-])nc2C)cc1[N+](=O)[O-] |
| > 49.7 | CC1CC(CC(=O)NNc2nc(-c3ccccc3)cs2)C(=O)O1 (stereo not given) |
| > 37.3 | O=C(NCc1ccccc1)c1ccc[nH+]c1.[Cl-] |
| 2.1 (≈ 8.19 µM) | O=C(NC(=O)c1ccccc1)Nc1ccccc1O |
| 35.2 (≈ 122 µM) | CC(NC(=O)c1ccccc1[N+](=O)[O-])C1CC2CCC1C2 (stereo not given) |
| 5.5 (≈ 15.5 µM) | COc1ccc(CNC(=O)CSCc2c(F)cccc2Cl)cc1 |
| < 0.3 | O=C(Nc1cc([N+](=O)[O-])ccc1F)c1ccc2ccccc2c1 |
| > 39.8 | CCC1(C)NC(=O)N(/N=C/c2ccc(C)s2)C1=O (stereo not given) |
| 2.5 (≈ 6.03 µM) | O=S(=O)(c1ccc(F)c(F)c1F)N1CCN(c2ncnc3sccc23)CC1 |
| > 42.1 | Cc1cccc(CS(=O)(=O)c2ncc(CO)n2C)c1 |
| 33.7 (≈ 141 µM) | Cc1cc(C(=O)CCl)c(C)n1-c1ccon1 |
| 0.5 (≈ 1.56 µM) | COc1cccc(-c2noc(-c3ccc(Br)o3)n2)c1 |
| 1.2 (≈ 3.64 µM) | Cc1ccc(-c2csc(NC(=O)c3ccc([N+](=O)[O-])o3)n2)cc1 |

| solubility kinetic [µg/mL] | SMILES |
| --- | --- |
| > 43.4 | CC(=O)c1sccc1NC(=O)c1ccccc1C(=O)O |
| > 48 | CC1(NC(=O)Cc2c(F)cccc2Cl)CCS(=O)(=O)C1 (stereo not given) |
| 31.8 (≈ 98.8 µM) | O=[N+]([O-])c1ccc(CN2CCN(c3ccccc3Cl)CC2)o1 |
| 0.6 (≈ 2.02 µM) | COc1ccc(C=O)cc1Cn1c(C)cc(C)c(C#N)c1=O |
| > 49.7 | COc1ccc(C(OC(=O)c2ccco2)C(=O)NC(C)(C)C)cc1 (stereo not given) |
| > 39.8 | Cc1cccc(C(=O)Nc2ccc3c(c2)ncn3C)c1 |
| > 40.4 | CC(=O)N(Cc1ccccc1)c1ccccc1C(=O)O |
| 35.8 (≈ 111 µM) | CSc1ncccc1C(=O)OCC(=O)NCc1cccs1 |
| 29.6 (≈ 96.3 µM) | COc1cccc(CN(C)Cc2c(O)ccc3ccccc23)c1 |
| > 48.2 | Cc1ccc2nc(-c3ccccc3)c(CC(=O)O)c(C(=O)O)c2c1 |
| 1.2 (≈ 4.24 µM) | CN1c2ccc([N+](=O)[O-])cc2N(C)C1(C)c1ccccc1 (stereo not given) |
| 0.4 (≈ 1.16 µM) | Cc1cc(/C=C2\SC(=S)N(C)C2=O)c(C)n1-c1cccc(O)c1 |
| > 27.9 | Cn1cncc1C(=O)c1ccccc1 |
| 44.6 (≈ 145 µM) | Cc1nc2ccccc2c2oc(C(=O)N3CCCC(C)C3)cc12 (stereo not given) |
| 30.2 (≈ 131 µM) | C=CCn1ccc2c([N+](=O)[O-])cccc2c1=O |
| > 38.3 | CCc1ccc(NC(=O)NCc2ccccn2)cc1 |
| 44.9 (≈ 139 µM) | CCOC(=O)c1c(C)n(C)c2cc([N+](=O)[O-])c(O)c([N+](=O)[O-])c12 |
| > 32.1 | O=C(O)/C=C/c1ccc(-n2ccnc2)cc1 |
| 8.4 (≈ 27.5 µM) | O=C(COC(=O)/C=C/c1cccs1)Nc1ccc(F)cc1 |
| > 39 | O=C(O)CN1C(=O)NC2(CCc3ccccc32)C1=O (stereo not given) |

| solubility kinetic [µg/mL] | SMILES |
| --- | --- |
| 46.6 (≈ 130 µM) | Cc1cccc2sc(NC(=O)CN3C(=O)NC4(CCCC4)C3=O)nc12 |
| > 46.3 | CCOC(=O)C(=O)c1c(-c2ccc(C)cc2)nc2ccccn12 |
| 1.6 (≈ 4.9 µM) | COC(=O)c1ccc(Cn2cc(/C=C\[N+](=O)[O-])c3ccccc32)o1 |
| > 36.3 | CCCCn1cnc2c(oc3ccccc32)c1=O |
| > 41.8 | CCN(CC)C(=O)Oc1ccnc2cc(Cl)ccc12 |
| 22.5 (≈ 106 µM) | Cc1ccc(OC(=O)c2cccnc2)cc1 |
| 46.2 (≈ 116 µM) | Cc1ccc(CN2CC(C(=O)N(C)CC(=O)Nc3cccc(F)c3)CC2=O)cc1 (stereo not given) |
| 45.5 (≈ 131 µM) | CC(=O)Nc1cccc(C(=O)NC(C)c2ccc(-n3ccnc3)cc2)c1 (stereo not given) |
| 19.9 (≈ 66.8 µM) | Cc1cccc(NC(=O)c2cc(Cl)nc3ccccc23)n1 |
| 43 (≈ 147 µM) | Cc1ccc(OCC(=O)N2CCC(C)CC2)c([N+](=O)[O-])n1 |
| > 45.1 | Cc1c(C(=O)NCc2ccccn2)oc2c(Cl)cccc12 |
| > 52.6 | CCN1CCc2c(OCC(=O)N3CCc4ccccc43)cccc2C1=O |
| 7.8 (≈ 26.6 µM) | Cc1ccc(CC2CC(=O)N(c3ccc(C)cc3)C2=O)cc1 (stereo not given) |
| 8.8 (≈ 29.9 µM) | Cc1ccc(N=C2c3ccccc3C(=O)C2[N+](=O)[O-])cc1C (stereo not given) |
| 32.4 (≈ 112 µM) | CCN(CC)c1c([N+](=O)[O-])c(=O)n(CC)c2ccccc12 |
| < 0.3 | CC(=O)c1sc(NC(=O)c2ccccc2)nc1-c1ccccc1 |
| > 36.6 | Cn1c(-c2ccc(Cl)nc2)nc2ccccc21 |
| > 38.6 | Cc1ccccc1NC(=O)c1c(C)cc(=O)oc1C |
| < 0.4 | Cc1cc(C)cc(CC2CC(=O)N(c3ccc([N+](=O)[O-])cc3)C2=O)c1 (stereo not given) |
